How the values were obtained:
broiler chickens [1] = experiment: Feed complementation for broiler chickens, initial growing cycle, 1 to 21 days (Example 5); format: in vivo; settings: 0 to 21 days
From the text: For this study it was used 336 chickens, males of Cobb lineage 500, received with one day of life. The chickens were housed in 28 cages, with 12 chickens being in each experimental unit. These chickens were submitted to 7 different treatments, each with 4 repetitions, distributed randomly in 7 blocks of 4 experimental units, with two daily observations being made, in order to evaluate the general conditions of the batch, such as temperature, illumination, water, feed and conditions of the bed of each one of the boxes.
The treatments of each batch of chickens were based on a pattern feed. Using this basal feed, the different treatments were developed as follows:
The quantity of formulation applied in the feeds presented as reference the used quantity of butyrates/feed ton, that is, within the interval from 200 g/feed ton to 1.000 g/feed ton.
The results obtained with these different treatments are related in the Table—Average weight, average weight gain, average feed consumption, alimentary conversion and mortality during the experimental period from 0 to 21 days: […]

broiler chickens [2] = experiment: Feed complementation for broiler chickens, whole productive cycle, 1 to 42 days (Example 6); format: in vivo; settings: for Alimentary conversion / Average weight gain (GPM)/chicken / Feed consumption / GPD / % death: 0 to 42 days; for % death: broiler chickens; for Average weight (PM)/chicken, PM2: final weight, 42 days
From the text: For this study there were used 2.352 chickens, males of the Cobb lineage 500, received with one day of life. The chickens were housed in 42 boxes, with 56 chickens being in each experimental unit. These chickens were submitted to different treatments, distributed randomly in 06 blocks of 07 experimental units, with two daily observations being made, in order to evaluate the general conditions of the batch, such as temperature, illumination, water, feed and conditions of the bed of each one of the boxes.
The treatments of each chicken batch were based on a pattern feed, with the following composition:
From this basal feed, the different treatments were developed as follows:
The results obtained with these different treatments are shown in the Table—Average weight, average weight gain, average feed consumption, alimentary conversion and mortality during the experimental period from 0 to 42 days: […]

Molecule | Alimentary conversion (broiler chickens [1]) | Accumulated mortality % (broiler chickens [1]; broiler chickens) [%] | Alimentary conversion (broiler chickens [2]) | Average weight gain (GPM)/chicken (broiler chickens [2]) | Feed consumption (broiler chickens [2]) [kg] | GPD (broiler chickens [2]) | % death (broiler chickens [2]) [%] | Average weight (PM)/chicken, PM2 (broiler chickens [2])
CCCC(=O)[O-].[Na+] [Treatment T2, sodium butyrate] | 1.371 | 10.41 | 1.789 | 2.709 abc kg | 5.058 | 65.5 a g/day | 6.47 | 2.753 abc kg
calcium butyrate [T3 - Ca, butyrate 45%] |  |  | 1.874 | 2.655 bc kg | 5.116 | 64.3 b g/day | 4.91 | 2.699 c kg

Reference: patent US20170013861A1, “BIOLOGICAL FORMULATION FOR COMPLEMENTING AN ANIMAL FEED, PROCESS FOR OBTAINING A BIOLOGICAL FORMULATION FOR AN ANIMAL FEED AND AN ANIMAL FEED” (PHB INDUSRIAL S.A., priority 2014, published 2017)
